Reference: patent publication US10941158B2, “Pyrazole ACC inhibitors and uses thereof” (Gilead Apollo, LLC, priority 2015, dated 2021)
≈ marks a conversion by molar mass, not a printed value. Where two headings read alike, the source gives them in different places.

Columns and labels:
human (hACC2) ACC2 = human (hACC2) ACC2 (Homo sapiens, UniProt O00763); assay: In vitro Acetyl-CoA Carboxylase (ACC) inhibition assay (ADP-Glo), hACC2; type: biochemical
Description: The detailed procedure is as follows. […] 10 μL ADP glo reagent was added. […] 20 μL kinase detection reagent was added.
“NA” stands for “not assayed.”

C. krusei ATCC 6258 = assay: Anti-Fungal (Candida) Activity Assay, broth microtiter MIC; type: cell-based; conditions: Pichia kudriavzevii, ATCC6258; 3 replicates, MIC recorded at 48 h; read-out: MIC C. krusei ATCC 6258
Description: (§1) Compounds of the present invention were evaluated in an Anti-Fungal Activity Assay. An exemplary procedure for the assay, which measures the susceptibility of various Candida species to anti-fungal compounds, follows. Compounds to be tested (including fluconazole and amphotericin B) were dissolved in DMSO to obtain a solution having a concentration of 1 mg/mL. […] All species were grown from frozen stock by directly plating on to freshly prepared Sabouraud Dextrose agar (BD, Difco) and incubated overnight in ambient air at 35° C. for 24 h. A direct suspension was prepared in RPMI 1640+MOPS (Lonza, Biowhittaker) by taking individual colonies from the overnight cultures using sterile swabs soaked in sterile saline. The concentration of the suspension was determined using pre-determined standard curves. […] Broth microtiter MIC challenge plates were prepared following CLSI guidelines (M27-A3, Vol. 28 No. 14). The original CLSI guidelines focused on reading Candida MICs after 48 h of incubation. As reading after only 24 h offers a clear advantage of patient care, QC limits are being established for all drugs at 24 h. That being said there are no known interpretive breakpoints for amphotericin B at 24 h and the current fluconazole interpretive breakpoints are based on a 48 h reading. The MIC for the test compounds were recorded at 48 h. All MIC determinations were achieved by visually comparing the growth found in the antibiotic challenged wells to that of the growth control.

[1] = system: C. parapsilosis ATCC 22019; assay: as above; type: cell-based; conditions: Lodderomyces parapsilosis, ATCC22019; 3 replicates, MIC recorded at 48 h; read-out: MIC C. parapsilosis ATCC 22019
Description: as §1

C. albicans ATCC 90028 = assay: as above; type: cell-based; conditions: ATCC90028, 3 replicates, MIC recorded at 48 h, read-out: MIC C. albicans ATCC 90028
Description: as §1

[2] = system: Collectotrichum graminicola (Cg); assay: Growth inhibition assay of fungal pathogens; type: cell-based; conditions: 48 h, read-out: Concentration at 90% Inhibition Cg
Description: (§2) Compounds of the present invention were evaluated in a growth inhibition assay to determine the ability to control the growth of fungal pathogens, such as Botrtyis cinerea (Bc), Collectotrichum graminicola (Cg). Diplodia maydis (Dm), Fusarium moniliforme (Fm), Fusarium virguliforme (Fv), Phytophthora capsici (Pc), Rhizoctonia solani (Rs), and Septoria tritici (St). Compounds to be tested were dissolved in DMSO at 2.5 mg/ml to produce compound stock solutions (“stocks”). Stocks were diluted with DMSO by a five-fold dilution in a 96-well stock plate, and two sets of final concentrations of 50, 10, and 2 ppm or 2, 0.4, and 0.08 ppm were obtained in vitro. A set of positive controls was also prepared, with various concentrations of Soraphen (2, 0.4, and 0.08 ppm), Metalaxyl (1.1, 0.22, and 0.04 ppm), and Metconazole (2, 0.4, and 0.08 ppm or 0.2, 0.04, and 0.008 ppm) after the five-fold dilutions. Negative controls on each plate included 2% DMSO, water, and a blank (media+2% DMSO). Fungal spores were isolated from previously sub-cultured plates of Botrtyis cinerea (Bc). Collectotrichum graminicola (Cg). Diplodia maydis (Dm), Fusarium moniliforme (Fm), Fusarium virguliforme (Fv), Phytophthora capsici (Pc), and Septoria tritici (St). The isolated spores were diluted to individual concentrations with a 17% V8 liquid media. For Rhizoctonia solani (Rs) and Pythium irregulare, 1.5 mm mycelial plugs were used in place of spores and ¼ Potato Dextrose Broth (PDB) was used for dilution. The spore concentrations and plug sizes were based on growth curves generated at 48 hours for each pathogen. In a second 96-well plate, the spores or mycelial plugs, media, diluted compound solutions, and controls were combined. Once the compound was added, a true final concentration of compound in each well was measured by an OD600 reading, which adjusted for any compound precipitation that might have occurred in the well. Plate readings were repeated at both 24 and 48 hours. The blank negative control was used as a background subtraction. Additional visual ratings were performed at both 24 and 48 hours for checking on precipitation and confirming efficacy. Visual and OD600 ratings of the compounds at 48 hours were compared to the 2% DMSO negative control, and the percent of pathogen growth inhibition was determined based on those values.

Rhizoctonia solani (Rs) = assay: Growth inhibition assay of fungal pathogens; type: cell-based; conditions: 48 h, read-out: Concentration at 90% Inhibition Rs
Description: as §2

Botrtyis cinerea (Bc) = assay: Growth inhibition assay of fungal pathogens; type: cell-based; conditions: 48 h, read-out: Concentration at 90% Inhibition Bc
Description: as §2

Diplodia maydis (Dm) = assay: Growth inhibition assay of fungal pathogens; type: cell-based; conditions: Stenocarpella maydis, 48 h, read-out: Concentration at 90% Inhibition Dm
Description: as §2

[3] = system: Phytophthora capsici (Pc); assay: Growth inhibition assay of fungal pathogens; type: cell-based; conditions: 48 hours; for IC90: Phytophthora capsici, read-out: Concentration at 90% Inhibition Pc
Description: as §2

Septoria tritici (St) = assay: Growth inhibition assay of fungal pathogens; type: cell-based; conditions: 48 hours; for IC90: Zymoseptoria tritici, read-out: Concentration at 90% Inhibition St
Description: as §2

[4] = system: Fusarium moniliforme (Fm); assay: Growth inhibition assay of fungal pathogens; type: cell-based; conditions: Fusarium verticillioides, 48 h, 48 hours, read-out: Concentration at 90% Inhibition Fm
Description: as §2

[5] = system: Fusarium virguliforme (Fv); assay: Growth inhibition assay of fungal pathogens; type: cell-based; conditions: 48 h, 48 hours, read-out: Concentration at 90% Inhibition Fv
Description: as §2

Chain of human (hACC2) ACC2 (O00763 whole entry): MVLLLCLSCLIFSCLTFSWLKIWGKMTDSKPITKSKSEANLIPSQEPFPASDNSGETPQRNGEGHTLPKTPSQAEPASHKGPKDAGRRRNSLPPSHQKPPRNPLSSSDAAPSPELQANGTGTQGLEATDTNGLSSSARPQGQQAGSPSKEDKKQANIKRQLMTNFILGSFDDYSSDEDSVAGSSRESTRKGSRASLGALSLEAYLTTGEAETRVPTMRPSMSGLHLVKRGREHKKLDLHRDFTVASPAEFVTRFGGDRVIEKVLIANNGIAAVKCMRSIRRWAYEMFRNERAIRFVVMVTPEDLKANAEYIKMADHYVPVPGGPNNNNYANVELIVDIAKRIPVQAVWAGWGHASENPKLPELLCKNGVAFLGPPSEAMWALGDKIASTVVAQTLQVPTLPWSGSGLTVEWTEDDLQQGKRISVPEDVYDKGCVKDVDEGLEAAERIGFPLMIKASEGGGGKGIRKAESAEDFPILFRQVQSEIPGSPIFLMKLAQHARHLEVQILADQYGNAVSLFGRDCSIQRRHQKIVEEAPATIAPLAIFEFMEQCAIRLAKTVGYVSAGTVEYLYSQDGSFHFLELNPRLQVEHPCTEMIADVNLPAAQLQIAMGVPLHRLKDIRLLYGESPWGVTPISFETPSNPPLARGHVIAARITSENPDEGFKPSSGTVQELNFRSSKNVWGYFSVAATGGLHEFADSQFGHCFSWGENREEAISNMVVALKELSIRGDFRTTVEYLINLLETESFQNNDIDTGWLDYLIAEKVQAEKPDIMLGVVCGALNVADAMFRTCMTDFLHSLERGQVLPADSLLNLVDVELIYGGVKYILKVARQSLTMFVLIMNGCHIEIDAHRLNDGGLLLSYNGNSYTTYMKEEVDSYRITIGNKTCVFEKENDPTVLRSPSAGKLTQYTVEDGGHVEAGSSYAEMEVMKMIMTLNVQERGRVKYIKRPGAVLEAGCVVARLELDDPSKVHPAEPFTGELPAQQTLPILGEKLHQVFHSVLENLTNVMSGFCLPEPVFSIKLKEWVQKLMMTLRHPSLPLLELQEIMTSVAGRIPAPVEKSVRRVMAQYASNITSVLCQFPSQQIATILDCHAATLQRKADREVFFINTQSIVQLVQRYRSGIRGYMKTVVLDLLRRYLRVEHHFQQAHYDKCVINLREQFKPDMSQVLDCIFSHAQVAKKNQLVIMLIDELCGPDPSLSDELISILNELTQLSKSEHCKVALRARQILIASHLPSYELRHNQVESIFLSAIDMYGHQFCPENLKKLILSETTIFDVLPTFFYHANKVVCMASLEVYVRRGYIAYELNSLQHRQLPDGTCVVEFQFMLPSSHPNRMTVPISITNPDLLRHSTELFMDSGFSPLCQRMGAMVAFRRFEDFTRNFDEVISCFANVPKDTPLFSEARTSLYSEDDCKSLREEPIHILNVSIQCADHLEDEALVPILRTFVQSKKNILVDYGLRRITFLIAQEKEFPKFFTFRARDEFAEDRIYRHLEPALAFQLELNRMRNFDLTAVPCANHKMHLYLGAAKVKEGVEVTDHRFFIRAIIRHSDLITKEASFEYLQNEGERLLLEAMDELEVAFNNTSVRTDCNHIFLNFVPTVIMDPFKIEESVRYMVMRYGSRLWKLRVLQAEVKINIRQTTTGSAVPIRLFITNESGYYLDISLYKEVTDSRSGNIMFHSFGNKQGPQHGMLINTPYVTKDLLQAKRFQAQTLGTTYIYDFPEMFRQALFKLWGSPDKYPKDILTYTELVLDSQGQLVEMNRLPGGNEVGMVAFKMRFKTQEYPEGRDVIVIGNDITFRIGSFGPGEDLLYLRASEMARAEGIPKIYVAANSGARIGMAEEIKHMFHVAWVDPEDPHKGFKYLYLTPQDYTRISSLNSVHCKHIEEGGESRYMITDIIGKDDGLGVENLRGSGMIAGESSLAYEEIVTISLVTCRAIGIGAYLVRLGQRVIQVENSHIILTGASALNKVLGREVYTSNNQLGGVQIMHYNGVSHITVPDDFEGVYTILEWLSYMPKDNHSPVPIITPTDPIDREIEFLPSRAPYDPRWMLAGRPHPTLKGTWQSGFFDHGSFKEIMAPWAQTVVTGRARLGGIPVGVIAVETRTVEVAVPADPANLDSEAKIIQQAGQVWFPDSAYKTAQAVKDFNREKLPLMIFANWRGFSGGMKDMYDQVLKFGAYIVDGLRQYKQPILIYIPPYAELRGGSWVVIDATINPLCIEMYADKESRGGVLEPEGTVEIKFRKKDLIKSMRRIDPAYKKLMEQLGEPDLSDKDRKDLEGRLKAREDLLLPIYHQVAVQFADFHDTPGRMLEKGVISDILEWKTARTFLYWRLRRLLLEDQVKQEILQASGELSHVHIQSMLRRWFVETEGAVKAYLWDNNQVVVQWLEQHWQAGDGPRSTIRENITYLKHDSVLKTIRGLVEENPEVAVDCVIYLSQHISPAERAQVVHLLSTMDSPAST

| Structure (SMILES) | IC50 (human (hACC2) ACC2) [nM] | MIC (C. krusei ATCC 6258) [µg/mL] | MIC [1] [µg/mL] | MIC (C. albicans ATCC 90028) [µg/mL] | IC90 ([2]; Table 4a) [µg/mL] | IC90 ([2]; Table 4b) [µg/mL] | IC90 (Rhizoctonia solani (Rs); Table 4a) [µg/mL] | IC90 (Rhizoctonia solani (Rs); Table 4b) [µg/mL] | IC90 (Botrtyis cinerea (Bc); Table 4a) [µg/mL] | IC90 (Botrtyis cinerea (Bc); Table 4b) [µg/mL] | IC90 (Diplodia maydis (Dm); Table 4a) [µg/mL] | IC90 (Diplodia maydis (Dm); Table 4b) [µg/mL] | IC90 ([3]; Table 4a) [µg/mL] | Concentration at 90% Inhibition Pc ([3]; Table 4b) | Concentration at 90% Inhibition St (Septoria tritici (St); Table 4b) | IC90 (Septoria tritici (St); Table 4a) [µg/mL] | IC90 ([4]; Table 4b) [µg/mL] | IC90 ([5]; Table 4b) [µg/mL] | IC90 ([3]; Table 4b) [µg/mL] | IC90 (Septoria tritici (St); Table 4b) [µg/mL] | other results |
| --- | --- | --- | --- | --- | --- | --- | --- | --- | --- | --- | --- | --- | --- | --- | --- | --- | --- | --- | --- | --- | --- |
| COc1ccc(F)cc1[C@H](Cn1c(=O)n(C(C)(C)C(=O)N2CCOCC2)c(=O)c2c(C)c(-n3cccn3)sc21)OC(C)C [Compound I-3, (R)-1-(2-(5-fluoro-2-methoxyphenyl)-2-isopropoxyethyl)-5-methyl-3-(2-methyl-1-morpholino-1-oxopropan-2-yl)-6-(1H-pyrazol-1-yl)thieno[2,3-d]pyrimidine-2,4(1H,3H)-dione] | 10 to 40 | 2.1 to 4 (≈ 3.42 to 6.52 µM) | > 4.1 | > 4.1 | > 50 | > 50 | > 50 | > 50 | > 50 | 10 (≈ 16.3 µM) | > 50 | 10 (≈ 16.3 µM) | > 50 | D (“D” provided a compound concentration of >50 ppm at 90% inhibition of fungal pathogens) | D (“D” provided a compound concentration of >50 ppm at 90% inhibition of fungal pathogens) | > 50 | 2 (≈ 3.26 µM) | 2 (≈ 3.26 µM) | – | – | IC90 ([4]; Table 4a): 2 µg/mL (≈ 3.26 µM); IC90 ([5]; Table 4a): 2 µg/mL (≈ 3.26 µM) |
| COc1ccc(F)cc1[C@H](Cn1c(=O)n(C(C)(C)C(N)=O)c(=O)c2c(C)c(-n3cccn3)sc21)OC1CCOCC1 [Compound I-4, (R)-2-(1-(2-(5-fluoro-2-methoxyphenyl)-2-((tetrahydro-2H-pyran-4-yl)oxy)ethyl)-5-methyl-2,4-dioxo-6-(1H-pyrazol-1-yl)-1,4-dihydrothieno[2,3-d]pyrimidin-3(2H)-yl)-2-methylpropanamide] | 10 to 40 | 2.1 to 4 (≈ 3.59 to 6.83 µM) | > 4.1 | > 4.1 | > 50 | 10 (≈ 17.1 µM) | > 50 | > 50 | 2 (≈ 3.41 µM) | 2 (≈ 3.41 µM) | > 50 | > 50 | > 50 | D (“D” provided a compound concentration of >50 ppm at 90% inhibition of fungal pathogens) | D (“D” provided a compound concentration of >50 ppm at 90% inhibition of fungal pathogens) | > 50 | 2 (≈ 3.41 µM) | > 50 | – | – | IC90 ([4]; Table 4a): 2 µg/mL (≈ 3.41 µM); IC90 ([5]; Table 4a): > 50 µg/mL |
| COc1ccc(F)cc1[C@H](Cn1c(=O)n(C(C)(C)C(N)=O)c(=O)c2c(C)c(-n3cccn3)sc21)O[C@H]1CC[C@@H](O)CC1 [Compound I-5, 2-(1-((R)-2-(5-fluoro-2-methoxyphenyl)-2-(((s,4S)-4-hydroxycyclohexyl)oxy)ethyl)-5-methyl-2,4-dioxo-6-(1H-pyrazol-1-yl)-1,4-dihydro-thieno[2,3-d]pyrimidin-3(2H)-yl)-2-methylpropanamide] | 3 to 10 | 1.1 to 2 (≈ 1.83 to 3.34 µM) | 2.1 to 4 (≈ 3.5 to 6.67 µM) | 1.1 to 2 (≈ 1.83 to 3.34 µM) | > 50 | > 50 | > 50 | 10 (≈ 16.7 µM) | 2 (≈ 3.34 µM) | 2 (≈ 3.34 µM) | > 50 | 10 (≈ 16.7 µM) | > 50 | D (“D” provided a compound concentration of >50 ppm at 90% inhibition of fungal pathogens) | D (“D” provided a compound concentration of >50 ppm at 90% inhibition of fungal pathogens) | > 50 | 2 (≈ 3.34 µM) | 10 (≈ 16.7 µM) | – | – | IC90 ([4]; Table 4a): 2 µg/mL (≈ 3.34 µM); IC90 ([5]; Table 4a): > 50 µg/mL |
| COc1ccc(F)cc1[C@H](Cn1c(=O)n(C(C)(C)C(=O)N2CC(O)C2)c(=O)c2c(C)c(-n3cccn3)sc21)OC1CCOCC1 [Compound I-9, (R)-1-(2-(5-fluoro-2-methoxyphenyl)-2-((tetrahydro-2H-pyran-4-yl)oxy)ethyl)-3-(1-(3-hydroxyazetidin-1-yl)-2-methyl-1-oxopropan-2-yl)-5-methyl-6-(1H-pyrazol-1-yl)thieno[2,3-d]pyrimidine-2,4(1H,3H)-dione] | 10 to 40 | – | – | – | – | > 50 | – | > 50 | – | > 50 | – | > 50 | – | – | – | – | > 50 | > 50 | > 50 | > 50 | – |
| COc1ccccc1[C@H](Cn1c(=O)n(C(C)(C)C(N)=O)c(=O)c2c(C)c(-n3cccn3)sc21)OC1CCOCC1 [Compound I-10, (R)-2-(1-(2-(2-methoxyphenyl)-2-((tetrahydro-2H-pyran-4-yl)oxy)ethyl)-5-methyl-2,4-dioxo-6-(1H-pyrazol-1-yl)-1,4-dihydrothieno[2,3-d]pyrimidin-3(2H)-yl)-2-methylpropanamide] | 3 to 10 | – | – | – | – | > 50 | – | > 50 | – | > 50 | – | > 50 | – | – | – | – | 10 (≈ 17.6 µM) | > 50 | > 50 | > 50 | – |
| COc1ccccc1[C@H](Cn1c(=O)n(C(C)(C)C(N)=O)c(=O)c2c(C)c(-n3cccn3)sc21)OC(C)C [Compound I-16, (R)-2-(1-(2-isopropoxy-2-(2-methoxyphenyl)ethyl)-5-methyl-2,4-dioxo-6-(1H-pyrazol-1-yl)-1,4-dihydrothieno[2,3-d]pyrimidin-3(2H)-yl)-2-methylpropanamide] | 10 to 40 | – | – | – | – | > 50 | – | 10 (≈ 19 µM) | – | > 50 | – | > 50 | – | – | – | – | > 50 | > 50 | > 50 | > 50 | – |
| COc1ccccc1[C@H](Cn1c(=O)n(C(C)(C)C(N)=O)c(=O)c2c(C)c(-n3cccn3)sc21)OCC(C)C [Compound I-20, (R)-2-(1-(2-isobutoxy-2-(2-methoxyphenyl)ethyl)-5-methyl-2,4-dioxo-6-(1H-pyrazol-1-yl)-1,4-dihydrothieno[2,3-d]pyrimidin-3(2H)-yl)-2-methylpropanamide] | 3 to 10 | – | – | – | – | > 50 | – | > 50 | – | 10 (≈ 18.5 µM) | – | 10 (≈ 18.5 µM) | – | – | – | – | 10 (≈ 18.5 µM) | > 50 | > 50 | > 50 | – |
